# Assay results taken from PMC10006169, “A phase I trial of LXS196, a protein kinase C (PKC) inhibitor, for metastatic uveal melanoma” (British Journal of Cancer, 2023).
# Values joined by “and” are separate entries in the source; they are usually repeats but may differ in a detail not shown here. Equal entries are not always repeated.
# Test system: metastatic uveal melanoma (MUM)
# Assay: Tumour response (RECIST v1.1) and progression-free survival
# Assay type: in vivo, human
# Description: Tumour response was assessed locally by computed tomography (CT) and/or magnetic resonance imaging (MRI) of the chest, abdomen and pelvis, according to Response Evaluation Criteria in Solid Tumours (RECIST) v1.1 at baseline, on C3D1 and every two cycles thereafter until cycle 11. After 11 cycles of treatment, response was evaluated every three cycles until the end of treatment. Fresh metastatic tumour biopsies were collected at baseline (prior to first dose) and on treatment at C1D15 to evaluate the modulation of PKC substrate proteins in tumours following exposure to LXS196 and to perform exploratory transcriptome and targeted DNA sequencing. Whole blood samples (peripheral blood mononuclear cells; PBMCs) were collected pre-dose on C1D1 and D15, and at various time points post-dose on C1D1, D2, D3, D15 and D16 to evaluate the modulation of PKC substrate proteins in a surrogate tissue. Owing to the exploratory nature of this phase I study, formal statistical tests were not planned to be performed. Data are presented using descriptive statistics and visualisations. Continuous variables are described with the mean and range. Categorical variables are described using counts and percentages. PFS is described using the Kaplan–Meier (KM) method.
compound,measurement,setting,value
CC1(N)CCN(c2cccnc2NC(=O)c2nc(-c3ncccc3C(F)(F)F)cnc2N)CC1 [LXS196],BOR: complete response (CR),300 mg BID (RDE) n=18,0 n (%)
same,BOR: partial response (PR),300 mg BID (RDE) n=18,2 (11.1%) n (%) and 2 (11.1) n (%)
same,BOR: progressive disease (PD),300 mg BID (RDE) n=18,3 (16.7) n (%)
same,BOR: unknown,300 mg BID (RDE) n=18,1 (5.6) n (%)
same,Kaplan–Meier PFS rate (95% CI) at 4 months,300 mg BID (RDE) n=18,44.4 (21.6–65.1) %
same,Kaplan–Meier PFS rate (95% CI) at 6 months,300 mg BID (RDE) n=18,27.8 (10.1–48.9) %
same,Kaplan–Meier PFS rate (95% CI) at 12 months,300 mg BID (RDE) n=18,22.2 (6.9–42.9) %
same,Number of PFS events,300 mg BID (RDE) n=18,18 (100) n (%)
same,PFS 25th percentile (95% CI),300 mg BID (RDE) n=18,2.1 (0.8–3.6) months
same,"PFS 50th percentile, median PFS (95% CI)",300 mg BID (RDE) n=18,3.7 (2.1–5.4) months
same,PFS 75th percentile (95% CI),300 mg BID (RDE) n=18,7.2 (3.7–25.8) months
same,PFS events: deaths,300 mg BID (RDE) n=18,1 (5.6) n (%)
same,PFS events: progression,300 mg BID (RDE) n=18,17 (94.4) n (%)
same,BOR: complete response (CR),All BID n=30,1 n (%) and 1 (3.3) n (%)
same,BOR: partial response (PR),All BID n=30,3 n (%) and 3 (10.0) n (%)
same,BOR: progressive disease (PD),All BID n=30,6 (20.0) n (%)
same,BOR: unknown,All BID n=30,2 (6.7) n (%)
same,Kaplan–Meier PFS rate (95% CI) at 4 months,All BID n=30,50.0 (31.3–66.1) %
same,Kaplan–Meier PFS rate (95% CI) at 6 months,All BID n=30,33.3 (17.5–50.0) %
same,Kaplan–Meier PFS rate (95% CI) at 12 months,All BID n=30,26.7 (12.6–43.0) %
same,Number of PFS events,All BID n=30,30 (100) n (%)
same,Overall response rate (ORR: CR + PR),All BID n=30,4 (13.3%) n (%) [95% CI]
same,PFS 25th percentile (95% CI),All BID n=30,1.9 (1.6–3.6) months
same,"PFS 50th percentile, median PFS (95% CI)",All BID n=30,4.1 (3.5–7.2) months
same,PFS 75th percentile (95% CI),All BID n=30,12.9 (5.4–25.8) months
same,PFS events: deaths,All BID n=30,2 (6.7) n (%)
same,PFS events: progression,All BID n=30,28 (93.3) n (%)
same,BOR: complete response (CR),All QD n=38,0 n (%)
same,BOR: partial response (PR),All QD n=38,2 n (%) and 2 (5.3) n (%)
same,BOR: progressive disease (PD),All QD n=38,9 (23.7) n (%)
same,BOR: unknown,All QD n=38,0 n (%)
same,Kaplan–Meier PFS rate (95% CI) at 4 months,All QD n=38,36.8 (22.0–51.8) %
same,Kaplan–Meier PFS rate (95% CI) at 6 months,All QD n=38,26.3 (13.7–40.8) %
same,Kaplan–Meier PFS rate (95% CI) at 12 months,All QD n=38,0.0 (NE–NE) %
same,Number of PFS events,All QD n=38,38 (100.0) n (%)
same,PFS 25th percentile (95% CI),All QD n=38,3.4 (1.7–3.5) months
same,"PFS 50th percentile, median PFS (95% CI)",All QD n=38,3.5 (3.5–5.4) months
same,PFS 75th percentile (95% CI),All QD n=38,6.0 (3.6–7.3) months
same,PFS events: deaths,All QD n=38,0 (0.0) n (%)
same,PFS events: progression,All QD n=38,38 (100.0) n (%)
same,BOR: complete response (CR),All patients N=68,1 (1.5) n (%)
same,BOR: partial response (PR),All patients N=68,5 n (%) and 5 (7.4) n (%)
same,BOR: progressive disease (PD),All patients N=68,15 (22.1) n (%)
same,BOR: unknown,All patients N=68,2 (2.9) n (%)
same,Kaplan–Meier PFS rate (95% CI) at 4 months,All patients N=68,42.6 (30.8–54.0) %
same,Kaplan–Meier PFS rate (95% CI) at 6 months,All patients N=68,29.4%
same,Kaplan–Meier PFS rate (95% CI) at 12 months,All patients N=68,11.8 (5.5–20.6) %
same,Number of PFS events,All patients N=68,68 (100) n (%)
same,Overall response rate (ORR: CR + PR),All patients N=68,8.8 n (%) [95% CI]
same,PFS 25th percentile (95% CI),All patients N=68,2.0 (1.7–3.5) months
same,"PFS 50th percentile, median PFS (95% CI)",All patients N=68,3.6 (3.5–5.4) months
same,PFS 75th percentile (95% CI),All patients N=68,7.2 (5.4–9.4) months
same,PFS events: deaths,All patients N=68,2 n (%) and 2 (2.9) n (%)
same,PFS events: progression,All patients N=68,66 n (%) and 66 (97.1) n (%)
same,Stable disease (SD) in evaluable patients,"RECIST v1.1, all doses",45/66
same,Median duration of SD,"n=45, range 2.07–30.23",5.32 months
same,Median duration of response,"patients with RECIST response n=6, range 2.99–41.95",10.15 months and 10 months
